pIC50: −log10 of the molar value. The source made the active and inactive calls. The calls are words filed in the database; no cut-off is given here. Residues, ends and D or L forms follow the SMILES beside them. *: point of attachment. Cbz = O=C(OCc1ccccc1)*
Tests used:
[1] = molecular target: T1, von Hippel-Lindau disease tumor suppressor/Receptor-type tyrosine-protein kinase FLT3 (Homo sapiens) (UniProt P36888+P40337); assay: PROTAC activity at VHL/FLT-3 in human HL-60 cells assessed as reduction in FLT-3 protein level at 1 uM incubated for 1 hrs by Western blot analysis; format: cell-based
T1 sequence (P36888 27-993 limits assumed): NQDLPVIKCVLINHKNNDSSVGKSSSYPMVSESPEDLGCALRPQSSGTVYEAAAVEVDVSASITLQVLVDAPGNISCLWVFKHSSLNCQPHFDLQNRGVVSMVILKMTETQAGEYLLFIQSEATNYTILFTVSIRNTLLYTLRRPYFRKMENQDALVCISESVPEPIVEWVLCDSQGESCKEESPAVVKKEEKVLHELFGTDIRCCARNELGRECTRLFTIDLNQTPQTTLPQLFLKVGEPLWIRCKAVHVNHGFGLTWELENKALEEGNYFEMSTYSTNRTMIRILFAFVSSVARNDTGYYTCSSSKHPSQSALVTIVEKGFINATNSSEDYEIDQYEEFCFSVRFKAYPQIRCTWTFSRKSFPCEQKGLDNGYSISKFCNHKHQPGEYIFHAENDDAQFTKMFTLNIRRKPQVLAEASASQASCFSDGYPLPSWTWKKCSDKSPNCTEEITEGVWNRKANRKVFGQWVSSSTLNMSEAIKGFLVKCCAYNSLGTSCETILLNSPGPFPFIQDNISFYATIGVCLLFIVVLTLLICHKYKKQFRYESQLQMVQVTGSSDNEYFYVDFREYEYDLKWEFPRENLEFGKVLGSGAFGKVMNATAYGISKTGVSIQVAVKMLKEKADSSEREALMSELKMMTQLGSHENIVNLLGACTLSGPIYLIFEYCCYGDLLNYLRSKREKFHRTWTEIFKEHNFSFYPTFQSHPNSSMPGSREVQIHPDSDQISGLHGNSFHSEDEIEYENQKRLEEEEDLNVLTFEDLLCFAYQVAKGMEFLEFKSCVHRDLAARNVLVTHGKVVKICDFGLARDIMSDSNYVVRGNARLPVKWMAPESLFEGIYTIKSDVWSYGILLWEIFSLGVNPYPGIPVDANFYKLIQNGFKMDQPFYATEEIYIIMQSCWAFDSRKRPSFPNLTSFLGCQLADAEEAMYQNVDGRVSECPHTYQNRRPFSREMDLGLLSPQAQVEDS
T1 sequence (P40337 whole entry partner): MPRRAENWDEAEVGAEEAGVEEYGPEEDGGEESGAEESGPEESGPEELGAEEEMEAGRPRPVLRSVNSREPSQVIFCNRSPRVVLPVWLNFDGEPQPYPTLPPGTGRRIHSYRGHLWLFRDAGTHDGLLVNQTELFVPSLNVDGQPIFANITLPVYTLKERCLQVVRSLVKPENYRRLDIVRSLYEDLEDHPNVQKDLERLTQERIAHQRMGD

HL-60 [2] = assay: Antiproliferative activity against human HL-60 cells assessed as reduction in cell viability at 20 uM incubated for 24 hrs by CCK-8 assay; format: functional, cell-based
K562 [3] = assay: Antiproliferative activity against human K562 cells assessed as reduction in cell viability at 20 uM incubated for 24 hrs by CCK-8 assay; format: functional, cell-based
[4] = Cytotoxicity against human NCM460 cells assessed as inhibition of cell growth; format: toxicity, cell-based
[5] = molecular target: T1, von Hippel-Lindau disease tumor suppressor/Receptor-type tyrosine-protein kinase FLT3 (Homo sapiens); assay: PROTAC activity at VHL/FLT-3 in human K562 cells assessed as reduction in FLT-3 protein level at 20 uM incubated for 48 hrs by Western blot analysis; format: cell-based
HL-60 [6] = assay: Antiproliferative activity against human HL-60 cells assessed as inhibition of cell growth incubated for 48 hrs by CCK-8 assay; format: functional, cell-based; settings: HL-60, 48 h
A498 [7] = assay: Antiproliferative activity against human A498 cells assessed as inhibition of cell growth incubated for 48 hrs by CCK-8 assay; format: functional, cell-based; settings: A498, 48 h
K562 [8] = assay: Antiproliferative activity against human K562 cells assessed as inhibition of cell growth incubated for 48 hrs by CCK-8 assay; format: functional, cell-based; settings: K562, 48 h
A498 [9] = assay: Antiproliferative activity against human A498 cells assessed as reduction in cell viability at 20 uM incubated for 24 hrs by CCK-8 assay; format: functional, cell-based
[10] = molecular target: T2, von Hippel-Lindau disease tumor suppressor/Mast/stem cell growth factor receptor Kit (Homo sapiens) (UniProt P10721+P40337); assay: PROTAC activity at VHL/c-KIT in human HL-60 cells assessed as reduction in c-KIT protein level at >10 uM measured at 24 to 48 hrs by Western blot analysis; format: cell-based; settings: time 24-48 hrs
T2 sequence (P10721 whole entry, looked up): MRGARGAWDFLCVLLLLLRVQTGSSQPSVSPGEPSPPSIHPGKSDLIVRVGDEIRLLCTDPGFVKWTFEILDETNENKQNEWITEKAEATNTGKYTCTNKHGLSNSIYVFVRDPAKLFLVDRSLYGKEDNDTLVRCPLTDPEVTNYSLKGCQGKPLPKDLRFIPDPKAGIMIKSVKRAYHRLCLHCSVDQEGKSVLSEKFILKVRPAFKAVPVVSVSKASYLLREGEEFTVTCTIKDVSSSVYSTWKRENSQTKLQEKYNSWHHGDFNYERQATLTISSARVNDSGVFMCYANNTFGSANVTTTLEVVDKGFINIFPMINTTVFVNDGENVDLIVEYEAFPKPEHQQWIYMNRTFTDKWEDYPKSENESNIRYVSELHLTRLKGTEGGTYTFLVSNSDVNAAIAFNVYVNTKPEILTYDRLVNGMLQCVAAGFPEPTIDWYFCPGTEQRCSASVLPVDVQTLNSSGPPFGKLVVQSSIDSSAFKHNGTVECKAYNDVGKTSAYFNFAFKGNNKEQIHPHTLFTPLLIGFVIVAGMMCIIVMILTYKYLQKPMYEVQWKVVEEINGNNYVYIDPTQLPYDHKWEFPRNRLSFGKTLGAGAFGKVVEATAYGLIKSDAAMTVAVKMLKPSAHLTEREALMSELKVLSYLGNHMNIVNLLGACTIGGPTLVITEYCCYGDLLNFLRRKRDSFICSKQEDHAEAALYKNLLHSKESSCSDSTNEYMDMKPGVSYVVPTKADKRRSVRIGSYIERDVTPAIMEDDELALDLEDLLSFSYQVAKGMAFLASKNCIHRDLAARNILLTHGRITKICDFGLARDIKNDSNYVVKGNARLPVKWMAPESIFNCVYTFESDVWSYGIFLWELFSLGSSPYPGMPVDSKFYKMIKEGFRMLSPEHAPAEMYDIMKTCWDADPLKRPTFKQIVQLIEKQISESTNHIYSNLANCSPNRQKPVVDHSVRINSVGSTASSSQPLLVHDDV
T2 sequence (P40337 whole entry, looked up): as the sequence (P40337 whole entry partner) above

[11] = molecular target: T1, von Hippel-Lindau disease tumor suppressor/Receptor-type tyrosine-protein kinase FLT3 (Homo sapiens); assay: PROTAC activity at VHL/FLT-3 in human HL-60 cells assessed as reduction in FLT-3 protein level at 10 uM by Western blot analysis; format: cell-based; settings: time 4-48 hrs, TDE = time-dependent effect
[12] = molecular target: T1, von Hippel-Lindau disease tumor suppressor/Receptor-type tyrosine-protein kinase FLT3 (Homo sapiens); assay: PROTAC activity at VHL/FLT-3 in human HL-60 cells assessed as reduction in FLT-3 protein level at 10 uM incubated for 12 hrs by Western blot analysis; format: cell-based
[13] = molecular target: T1, von Hippel-Lindau disease tumor suppressor/Receptor-type tyrosine-protein kinase FLT3 (Homo sapiens); assay: PROTAC activity at VHL/FLT-3 in human HL-60 cells assessed as reduction in FLT-3 protein level at 10 to 20 uM incubated for 48 hrs by Western blot analysis; format: cell-based; settings: dose 10-20 µM
[14] = molecular target: T1, von Hippel-Lindau disease tumor suppressor/Receptor-type tyrosine-protein kinase FLT3 (Homo sapiens); assay: PROTAC activity at VHL/FLT-3 in human HL-60 cells assessed as reduction in FLT-3 protein level at 20 uM preincubated with MG-132 for 1 hrs followed by compound addition and measured after for 48 hrs by Western blot analysis; format: cell-based
[15] = molecular target: T1, von Hippel-Lindau disease tumor suppressor/Receptor-type tyrosine-protein kinase FLT3 (Homo sapiens); assay: PROTAC activity at VHL/FLT-3 in human HL-60 cells assessed as reduction in FLT-3 protein level at 20 uM incubated for 24 hrs by Western blot analysis; format: cell-based
[16] = molecular target: T2, von Hippel-Lindau disease tumor suppressor/Mast/stem cell growth factor receptor Kit (Homo sapiens); assay: PROTAC activity at VHL/c-KIT in human HL-60 cells assessed as reduction in c-KIT protein level at 20 uM preincubated with VHL032 for 1 hrs followed by compound addition and measured after for 48 hrs by Western blot analysis; format: cell-based

Activity [1]	Activity [5]	pIC50 (HL-60 [6])	pIC50 (K562 [8])	Activity [10]	Activity [11]	Activity [12]	Activity [13]	Activity [14]	Activity [15]	Activity [16]	SMILES	Activity (HL-60 [2])	Activity (K562 [3])	pIC50 [4]	pIC50 (A498 [7])	Activity (A498 [9])
Active											CC(C)C[C@@H](C=O)NC(=O)[C@H](CC(C)C)NC(=O)[C@H](CC(C)C)NC(=O)OCc1ccccc1 (Cbz-Leu-Leu-Leu-aldehyde)					
	Active	4.44	5.08								CCN(CCNC(=O)c1c(C)[nH]c(/C=C2\C(=O)Nc3ccc(F)cc32)c1C)CC(=O)N[C@H](C(=O)N1C[C@H](O)C[C@H]1C(=O)NCc1ccc(-c2scnc2C)cc1)C(C)(C)C	Active	Active	< 4.00	4.58	Active
		4.90	4.82								Cc1ncsc1-c1ccc(CNC(=O)[C@@H]2C[C@@H](O)CN2C(=O)[C@@H](NC(=O)COCCOCCOCCNC(=O)c2c(C)[nH]c(/C=C3\C(=O)Nc4ccc(F)cc43)c2C)C(C)(C)C)cc1				4.74	
	Active	5.54	4.94	Active	Tde	Active	Active	Active	Active	Active	Cc1ncsc1-c1ccc(CNC(=O)[C@@H]2C[C@@H](O)CN2C(=O)[C@@H](NC(=O)COCCOCCNC(=O)c2c(C)[nH]c(/C=C3\C(=O)Nc4ccc(F)cc43)c2C)C(C)(C)C)cc1	Active	Active	< 4.00	4.88	Active
		5.06	5.24								CCN(CC)CCNC(=O)c1c(C)[nH]c(/C=C2\C(=O)Nc3ccc(F)cc32)c1C [SUNITINIB]				5.92	

Source: ChEMBL document CHEMBL5150032, “Sunitinib-based Proteolysis Targeting Chimeras (PROTACs) reduced the protein levels of FLT-3 and c-KIT in leukemia cell lines” (Bioorg Med Chem Lett, 2022)
